In EP0603240B1, “SAFENING HERBICIDAL PYRAZOLYLSULFONYLUREAS” (priority 1991, dated 1993):
Structures can show the parent of a compound that is named as a salt. Where two headings read alike, the source gives them in different places.

Assays:
corn [1] = test: Example 7, Procedure II: Herbicide No. 1 + metolachlor (No. 12) with antidotes; type: in vivo; settings: Herbicide No.12 3.36 kg/ha alone
Method: (§1) Containers were filled and compacted with a fumigated silt loam top soil to a depth of about 1.3 cm from the top of the container. A first container was designated as an untreated control, a second container was designated as a herbicide control, and a third container was designated as a herbicide + antidote test container. Each of the containers was seeded with a crop species. A measured amount of herbicide dispersed or dissolved in acetone was applied to a measured quantity of soil. To this same quantity of soil treated with herbicide, there was added a measured amount of antidote dispersed or dissolved in acetone. The quantity of soil treated with the herbicide and antidote was thoroughly mixed to incorporate the herbicide and antidote in the soil uniformly. The seed bed in the third container of soil was covered with the soil treated with the herbicide and antidote and the container was leveled. For each test series, the seed beds of the first and second containers were likewise covered by soil layers. the cover layer of the first container was not treated with herbicide or antidote.
(§2) The containers were then placed on a bench in a greenhouse and sub-irrigated as required for the duration of the test. […] Plant response is measured in terms of percent injury. Antidote efficacy is indicated as the difference in plant injury by the herbicide(s) without the antidote and with the antidote.
(§3) This procedure is the same as Procedure I, but modified in the manner that after incorporation of the chemicals (herbicide and antidote) the containers with the covered seedbed were treated with an initial overhead irrigation equivalent to 0.6 cm rainfall, then subsequently sub-irrigated as required on greenhouse benches.
(§4) In this example, Procedure II described above was followed. The data from the tests in this example is shown in Table 6 and represents averages of duplicate replications.
(§5) The tests in this example followed the same procedure and antidotes used in Example 6. However, Herbicide No. 12 (metolachlor) was used as the co-herbicide with Herbicide No. 1.

[2] = test system: barnyardgrass (Echinochloa crusgalli); test: as above; type: in vivo; settings: Herbicide No.12 3.36 kg/ha alone
Method: as §1, §2, §3
(§6) In the series of greenhouse tests described below, for routine screening purposes the herbicide/antidote compositions were tested in crop/weed combinations involving corn as the crop and either or both of the weeds barnyardgrass (Echinochloa crusgalli), a monocotyledonous weed, and velvetleaf (Abutilon theophrasti), a dicotyledonous weed. In the tables below, these weeds are indicated by the symbols "BYG" and "VL", respectively.
as §4, §5

[3] = test system: velvetleaf (Abutilon theophrasti); test: as above; type: in vivo; settings: Herbicide No.12 3.36 kg/ha alone
Method: as §1, §2, §3, §6, §4, §5

corn [4] = test: Example 12, Procedure II: Herbicide No. 1 + acetochlor (No. 6) with thirteen antidotes; type: in vivo
Method: as §1, §2, §3
This example was designed to investigate the efficacy of thirteen different antidotes from different classes of chemistry as safeners against compositions of Herbicide No. 1 and acetochlor (Herbicide No. 6) as co-herbicide. Acetochlor is the active ingredient in the commercial herbicides GUARDIAN® and WENNER®.
The test procedure used in this example was Procedure II described above.

corn [5] = test: Example 25, greenhouse preemergence test: Antidote Nos. 1 and 2 against Herbicide Nos. 1-3; type: in vivo, Corn (Pioneer 3424 variety); settings: no antidote
Method: The chemicals were tested in both preemergence and post-emergence modes of application. The herbicides were prepared and applied as wettable powders; dichlormid was applied as an emulsifiable concentrate, while the naphthalic anhydride was applied as a coating on the corn seed prior to planting.
Test data from the preemergence tests are shown in Table 25A and from the post-emergence tests in Table 25B. In the tables, the concentration of chemicals is shown in terms of active ingredient in grams per hectare (G/ha); concentrations of the naphthalic anhydride were not measured per se, but were present as in conventional, normally-coated applications. Corn injury is shown in terms of percent inhibition of growth.

corn [6] = test: Example 24, Procedure II: Herbicide No. 1 + co-herbicides Nos. 4, 6, 7, 12 with Antidote Nos. 15 and 17-21; type: in vivo; settings: antidote 2.24 kg/ha; highest test rate (0.56 kg/ha) of Herbicide No. 1 + co-herbicide
Method: as §1, §2, §3
In other greenhouse tests, using Procedure II described above, the safening efficacy of Antidote Nos. 15 and 17-21 was evaluated against Herbicide No. 1 in corn in the presence of Giant foxtail (Setaria fabergi) and Velvetleaf (Abutilon theophrasti) as representative annual monocotyledonous and dicotyledonous weeds, respectively.
Test results are shown in Tables 23A and 23B wherein the indicated plant inhibition represents the average of duplicate replications, with observations being made thirteen (13) days after application of the chemicals. Giant foxtail and Velvetleaf are represented by the symbols "GFT" and "VL", respectively. The data in Table 23A show the test results using the antidotes at 2.24 kg/ha, whereas in Table 23B, the antidotal rate was reduced to 0.56 kg/ha.
The tests described in Example 23 were duplicated, but in this example a variety of co-herbicides were included to ascertain the efficacy of the antidotes against combinations of Herbicide No. 1 and Herbicides Nos. 4, 6, 7 and 12 as co-herbicides. Test results are shown in Table 24, wherein the antidote application rate was 2.24 kg/ha.

corn [7] = test: Example 20, Procedure II: Herbicide No. 1 + EPTC or ERADICANE EXTRA with Antidote Nos. 5 and 15; type: in vivo
Method: as §1, §2, §3
(§7) This example describes experiments designed to test two generally efficacious antidotal compounds, i.e., Antidote Nos. 5 and 15, against the herbicidal action of the sulfonylurea compound, Herbicide No. 1, and the commercial herbicides EPTC (Herbicide No. 4) and ERADICANE® EXTRA (EPTC + R-29148, Antidote No. 5). Procedure II above was used in conducting these experiments. Formulations of EPTC and ERADICANE EXTRA were applied onto soil cover layers (to be applied over seed beds), followed by sequential pipetting of Herbicide No. 1 and Antidote No. 15. The soil was mixed to homogeneity and spread over the seed beds followed by 0.6 cm of overhead irrigation.

[8] = test system: velvetleaf (Abutilon theophrasti); test: as above; type: in vivo
Method: as §1, §2, §3, §6, §7

corn [9] = test: Example 3, Procedure I: antidotes against Herbicide No. 1; type: in vivo
Method: as §1, §2
(§8) This example details the results of tests with Antidote Nos. 12, 15 and 16 to safen Herbicide No. 1 over application rates ranging from 4.48 kg/ha down to 0.56 kg/ha, in corn in the presence of barnyardgrass. Procedure I described above was used in these tests.

[10] = test system: barnyardgrass (Echinochloa crusgalli); test: as above; type: in vivo
Method: as §1, §2, §6, §8

corn [11] = test: Example 6, Procedure II: Herbicide No. 1 + alachlor (No. 7) with antidotes; type: in vivo; settings: Herbicide No.7 4.48 kg/ha alone
Method: as §1, §2, §3
(§9) This example was designed to investigate the antidotal efficacy of a plurality of antidotal compounds against a composition comprising Herbicide No. 1 in combination with Herbicide No. 7 (alachlor). The antidotal compounds used herein were Nos. 1, 2, 7, 13 and 15.
as §4

[12] = test system: barnyardgrass (Echinochloa crusgalli); test: as above; type: in vivo; settings: Herbicide No.7 4.48 kg/ha alone
Method: as §1, §2, §3, §6, §9, §4

[13] = test system: velvetleaf (Abutilon theophrasti); test: as above; type: in vivo; settings: Herbicide No.7 4.48 kg/ha alone
Method: as §1, §2, §3, §6, §9, §4

corn [14] = test: Example 8, Procedure II: Herbicide No. 1 + butachlor (No. 9) with antidotes; type: in vivo; settings: Herbicide No.9 2.24 kg/ha alone
Method: as §1, §2, §3
(§10) In this test, the efficacy of the same five antidotes used in Examples 6 and 7 was investigated in compositions comprising Herbicide No. 1 and as a co-herbicide, butachlor (Herbicide No. 9), active ingredient in MACHETE® herbicide, a leading commercial rice herbicide. The test procedure used in this example was the same as that in Examples 6 and 7.

[15] = test system: barnyardgrass (Echinochloa crusgalli); test: as above; type: in vivo; settings: Herbicide No.9 2.24 kg/ha alone
Method: as §1, §2, §3, §6, §10

[16] = test system: velvetleaf (Abutilon theophrasti); test: as above; type: in vivo; settings: Herbicide No.9 2.24 kg/ha alone
Method: as §1, §2, §3, §6, §10

[17] = Herbicide No. 4 2.24 kg/ha alone
[18] = Herbicide No. 4 4.48 kg/ha alone
[19] = Herbicide No. 4 6.72 kg/ha alone
[20] = Herb. No. 1 0.56 kg/ha + antidote 0.56 kg/ha
[21] = Herb. No. 1 0.56 kg/ha + antidote 2.24 kg/ha
[22] = Herb. No. 1 0.56 kg/ha + antidote 8.96 kg/ha
[23] = Herb. No. 1 1.12 kg/ha + antidote 0.56 kg/ha
[24] = Herb. No. 1 1.12 kg/ha + antidote 2.24 kg/ha
[25] = Herb. No. 1 1.12 kg/ha + antidote 8.96 kg/ha
[26] = Herb. No. 1 2.24 kg/ha + antidote 0.56 kg/ha
[27] = Herb. No. 1 2.24 kg/ha + antidote 2.24 kg/ha
[28] = Herb. No. 1 2.24 kg/ha + antidote 8.96 kg/ha
[29] = Herb. No. 1 4.48 kg/ha + antidote 0.56 kg/ha
[30] = Herb. No. 1 4.48 kg/ha + antidote 2.24 kg/ha
[31] = Herb. No. 1 4.48 kg/ha + antidote 8.96 kg/ha
[32] = antidote 8.96 kg/ha alone, no herbicide

Molecule: CCc1cccc(C)c1N(C(=O)CCl)C(C)COC (stereo not drawn) [Herbicide No. 12, 2-Chloro-N-(2-methoxy-1-methylethyl)-6'-ethyl-o-acetotoluidide, reference compound]
- % Injury Corn (corn [1]): 0%
- % Injury BYG [2]: 100%
- % Injury VL [3]: 20%

Molecule: CCOCN(C(=O)CCl)c1c(C)cccc1CC [Herbicide No. 6, 2-Chloro-N-(ethoxymethyl)-6'-ethyl-o-acetoluidide, reference compound]
- injury to corn (corn [4]; Herbicide No. 6 2.24 kg/ha, without an antidote): 25%

Molecule: N#CC(=NOCC1OCCO1)c1ccccc1 [Antidote No. 6, Benzeneacetonitrile, α-{[(1,3-dioxolan-2-yl)methoxy]imino}-]
- safening of corn, assessment in words (corn [4]; Herbicide No. 1:Herbicide 6:Antidote 0.14:2.24:2.24 kg/ha): performed at commercial levels
- safening of corn, assessment in words (corn [4]; Herbicide No. 1:Herbicide 6:Antidote 0.14:2.24:8.96 kg/ha): performed at commercial levels

Molecule: CCOC(=O)c1cnn(C)c1S(=O)(=O)NC(=O)Nc1nc(OC)cc(OC)n1 [Herbicide No. 3, N-[(4,6-dimethoxypyrimidin-2-yl)aminocarbonyl]-4-ethoxycarbonyl-1-methylpyrazole-5-sulfonamide]
- inhibition at 0.07 g/ha (corn [5]; Zea mays, pre-emergence, Preemergence, herbicide alone 0.07 G/ha): 19.1%
- inhibition at 0.25 g/ha (corn [5]; Zea mays, pre-emergence, Preemergence, herbicide alone 0.25 G/ha, read-out: % Inhibition Corn): 80.9%
- inhibition at 0.74 g/ha (corn [5]; Zea mays, pre-emergence, Preemergence, herbicide alone 0.74 G/ha): 80.9%
- inhibition at 0.25 g/ha (corn [5]; Zea mays, pre-emergence, preemergence, Herbicide No. 3 0.25 G/ha, read-out: corn injury, percent inhibition of growth): 80.9%

Molecule: O=C(O)COC(c1ccccc1)c1ccccc1 [Antidote No. 18, Acetic acid, (diphenylmethoxy)- sodium salt, hemihydrate]
- safening of corn, assessment in words (corn [6]): failed to safen

Molecule: CCCN(CCC)C(=O)SCC [No. 4]
- % Injury Corn (corn [7]; [17]): 0%
- % Injury Corn (corn [7]; [18]): 0%
- % Injury Corn (corn [7]; [19]): 10%
- % Injury VL [8, 17]: 0%
- % Injury VL [8, 18]: 0%
- % Injury VL [8, 19]: 18%

Molecule: CC1(C)OC(c2cccs2)CN1C(=O)C(Cl)Cl (stereo not drawn) [compound 11]
- % Injury Corn (corn [9]; [20]): 15%
- % Injury Corn (corn [9]; [21]): 0%
- % Injury Corn (corn [9]; [22]): 0%
- % Injury Corn (corn [9]; [23]): 5%
- % Injury Corn (corn [9]; [24]): 0%
- % Injury Corn (corn [9]; [25]): 0%
- % Injury Corn (corn [9]; [26]): 30%
- % Injury Corn (corn [9]; [27]): 0%
- % Injury Corn (corn [9]; [28]): 0%
- % Injury Corn (corn [9]; [29]): 50%
- % Injury Corn (corn [9]; [30]): 30%
- % Injury Corn (corn [9]; [31]): 5%
- % Injury Corn (corn [9]; [32]): 15%
- % Injury BYG [10, 20]: 70%
- % Injury BYG [10, 21]: 20%
- % Injury BYG [10, 22]: 0%
- % Injury BYG [10, 23]: 80%
- % Injury BYG [10, 24]: 15%
- % Injury BYG [10, 25]: 0%
- % Injury BYG [10, 26]: 75%
- % Injury BYG [10, 27]: 30%
- % Injury BYG [10, 28]: 0%
- % Injury BYG [10, 29]: 80%
- % Injury BYG [10, 30]: 80%
- % Injury BYG [10, 31]: 50%
- % Injury BYG [10, 32]: 0%

Molecule: N-[(4,6-dimethoxypyridin-2-yl)aminocarbonyl]-3-chloro-4-ethoxycarbonyl-1-methylpyrazole-5-sulfonamide [Herbicide No. 2]
- % Inhibition Corn (corn [5]; Preemergence, herbicide alone 0.25 G/ha): 21.7%
- % Inhibition Corn (corn [5]; Preemergence, herbicide alone 0.74 G/ha): 36.4%
- % Inhibition Corn (corn [5]; Preemergence, herbicide alone 2.5 G/ha): 42.7%

Molecule: CCc1cccc(CC)c1N(COC)C(=O)CCl [Herbicide No. 7, 2-Chloro-2',6'-diethyl-N-(methoxymethyl)acetanilide, reference compound]
- % Injury Corn (corn [11]): 10%
- % Injury BYG [12]: 100%
- % Injury VL [13]: 25%

Molecule: COC(=O)COC(c1ccccc1)c1ccccc1 [Antidote No. 20, Acetic acid, (diphenylmethoxy)-, methyl ester]
- safening of corn, assessment in words (corn [6]): failed to safen

Molecule: CC1COc2ccccc2N1C(=O)C(Cl)Cl (stereo not drawn) [Antidote No. 17, 4-(Dichloroacetyl)-3,4-dihydro-3-methyl-2H-1,4-benzoxazine]
- safening of corn, assessment in words (corn [6]): failed to safen

Molecule: CCCCOCN(C(=O)CCl)c1c(CC)cccc1CC [Herbicide No. 9, 2-Chloro-2',6'-diethyl-N-(butoxymethyl)acetanilide, reference compound]
- % Injury Corn (corn [14]): 5%
- % Injury BYG [15]: 99%
- % Injury VL [16]: 25%
